We go through 23 compounds from patent publication US9636335B2, “Heteroaryl compounds as 5-HT4 receptor ligands” (Suven Life Sciences Ltd, priority 2011, dated 2017).

Where a name gives a salt, the structure may show the parent alone.

The target of data set [1] is recombinant human 5-HT4 receptor (Homo sapiens (Human), UniProt Q13639). Briefly: Determination of EC50 values for 5-HT4 receptor (CHO cells, pCRE-Luc reporter). The conditions noted are these: CHO cells expressing human 5-HT4 receptor, luciferase activity, 4 hours incubation. Type of data set: cell-based. As for the experimental part: A stable CHO cell line expressing recombinant human 5-HT4 receptor and pCRE-Luc reporter system was used for cell-based assay. The assay offers a non-radioactive based approach to determine binding of a compound to GPCRs. In this specific assay, the level of intracellular cyclic AMP which is modulated by activation or inhibition of the receptor is measured. The recombinant cells harbor luciferase reporter gene under the control of cAMP response element.
The above cells were grown in 96 well clear bottom white plates in Hams F12 medium containing 10% fetal bovine serum (FBS). Prior to the addition of compounds or standard agonist, cells were serum starved overnight. Increasing concentrations of test compounds were added in OptiMEM medium to the cells. The incubation was continued at 37° C. in CO2 incubator for 4 hours. Medium was removed and cells were washed with phosphate buffered saline. The cells were lysed and luciferase activity was measured in a Luminometer. Luminescence units were plotted against the compound concentrations using Graphpad software.

The test system of data set [2] is Male Wister rats. Put plainly: Object recognition task model. Conditions: p.o., rat. Type of data set: in vivo. The protocol:
The cognition enhancing properties of compounds of this invention were estimated by using this model.
Male Wister rats (230-280 grams) were used as experimental animals. Four animals were housed in each cage. […] Also the rats were habituated to individual arenas for 1 hour in the absence of any objects.
One group of 12 rats received vehicle (1 mL/Kg) orally and another set of animals received compound of the formula (I) either orally or i.p., before one hour of the familiar (T1) and choice trial (T2).
The experiment was carried out in a 50×50×50 cm open field made up of acrylic. In the familiarization phase, (T1), the rats were placed individually in the open field for 3 minutes, in which two identical objects (plastic bottles, 12.5 cm height×5.5 cm diameter) covered in yellow masking tape alone (a1 and a2) were positioned in two adjacent corners, 10 cms from the walls. After 24 hours of the (T1) trial for long-term memory test, the same rats were placed in the same arena as they were placed in T1 trial. Choice phase (T2) rats were allowed to explore the open field for 3 minutes in presence of one familiar object (a3) and one novel object (b) (Amber color glass bottle, 12 cm high and 5 cm in diameter). Familiar objects presented similar textures, colors and sizes. During the T1 and T2 trial, explorations of each object (defined as sniffing, licking, chewing or having moving vibrissae whilst directing the nose towards the object at a distance of less than 1 cm) were recorded separately by stopwatch. […] T1 is the total time spent exploring the familiar objects (a1+a2). T2 is the total time spent exploring the familiar object and novel object (a3+b).

Data set [3] in a line: Rodent pharmacokinetic study. The format is in vivo, Male Wister rats. The conditions noted are these: plasma, Wistar/Male rat. The protocol:
Three to five animals were housed in each cage. […] Animals were fasted over night before oral dosing (p.o) and food pellets were allowed 2 hours post dosing, whereas intravenous dosing food and water were provided as ad libitum. Three rats were dosed with compounds of formula (I) (10 mg/kg) orally and intravenously (05 mg/kg).
At each time point blood was collected through jugular vein and immediately replenish with an equivalent volume of normal saline from freely moving rats. Collected blood was transferred into a labeled eppendr off containing 10 μL of heparin as anticoagulant. Typically blood samples were collected as following time points: Pre dose, 0.08 (only i.v.), 0.25, 0.5, 1, 2, 4, 6, 8, and 24 hours post dose (n=3). Blood was centrifuged at 4000 rpm for 10 minutes. Plasma was prepared and stored frozen at −20° C. until analysis.
Pharmacokinetic parameters Cmax, Tmax, AUCt, T1/2 and Bioavailability were calculated by non-compartmental model using standard non-compartmental model by using WinNonLin 5.0.1 or Phoenix WinNonlin 6.2 version Software package.

Sequence of recombinant human 5-HT4 receptor (Q13639 whole entry): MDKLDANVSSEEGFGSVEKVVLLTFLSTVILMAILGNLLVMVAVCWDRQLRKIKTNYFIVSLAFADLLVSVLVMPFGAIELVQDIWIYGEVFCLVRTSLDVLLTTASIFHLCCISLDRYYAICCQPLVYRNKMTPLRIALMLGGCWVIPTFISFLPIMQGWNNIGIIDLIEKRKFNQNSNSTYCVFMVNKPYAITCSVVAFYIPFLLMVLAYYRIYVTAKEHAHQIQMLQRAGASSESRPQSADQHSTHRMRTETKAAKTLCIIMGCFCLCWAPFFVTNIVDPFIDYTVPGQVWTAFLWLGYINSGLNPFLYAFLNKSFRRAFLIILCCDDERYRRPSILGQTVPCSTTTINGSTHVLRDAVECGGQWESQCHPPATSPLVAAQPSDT

With `Nc1c(Cl)cc(-c2nnc(C3CCN(C4CC4)CC3)o2)c2c1CCCO2.Nc1c(Cl)cc(-c2nnc(C3CCN(C4CC4)CC3)o2)c2c1CCCO2.O=C(O)/C=C/C(=O)O` [Example 1, 6-Chloro-8-[5-(1-cyclopropyl-piperidin-4-yl)-[1,3,4]oxadiazol-2-yl]-chroman-5-ylamine hemi fumarate], the EC50 (in general, the midpoint of the concentration-response curve) in data set [1] worked out at 28.5 nM. In addition, in data set [2] (3 mg/kg), the “Exploration time mean ± S.E.M, Familiar object” value stood at 5.08 ± 0.1 s; the “Exploration time mean ± S.E.M, Novel object” value came to 13.80 ± 2.20 s; the Inference result is recorded as “Active”.
On to `COCCCN1CCC(c2nnc(-c3nn(C(C)C)c4ccccc34)o2)CC1.O=C(O)C(=O)O` [Example 3, 1-isopropyl-3-{5-[1-(3-methoxypropyl)piperidin-4-yl]-[1,3,4]oxadiazol-2-yl}-1H-indazole oxalate salt], for which the Tmax – broadly, the time from dosing to the highest level – in data set [3] (5 mg/kg, intravenous (bolus)) came out at 4.8 min; in data set [3] (10 mg/kg, oral (gavage)), 25.2 ± 7.2 min.
In the case of `CCOC(=O)N1CCC(N2CCC(c3nnc(-c4cc(Cl)c(N)c5c4OCCO5)o3)CC2)CC1` [Example 6, 4-[5-(8-amino-7-chloro-2,3-dihydrobenzo[1,4]dioxin-5-yl)-[1,3,4]oxadiazol-2-yl]-[1,4′]bipiperidinyl-1′-carboxylic acid ethyl ester oxalate salt], the EC50 in data set [1] was determined as 4.2 nM.
Take `Nc1c(Cl)cc(-c2nnc(C3CCN(C4CCOCC4)CC3)o2)c2c1CCO2` [Example 7, 5-Chloro-7-{5-[1-(tetrahydropyran-4-yl)piperidin-4-yl]-[1,3,4]oxadiazol-2-yl}-2,3-dihydro benzofuran-4-yl amine oxalate salt]: the EC50 in data set [1] turned out to be 7 nM.
Same read-out and setting: the value for `Nc1c(Cl)cc(-c2nnc(C3CCN(CC4CCC4)CC3)o2)c2c1CCCO2` [Example 10, 6-Chloro-8-[5-(1-cyclobutylmethyl-piperidin-4-yl)-[1,3,4]oxadiazol-2-yl]-chroman-5-ylamine] was 5.7 nM; that for `Nc1c(Cl)cc(-c2nnc(C3CCN(CC4CC4)CC3)o2)c2c1CCCO2` [Example 11, 6-Chloro-8-[5-(1-cyclopropylmethyl-piperidin-4-yl)-[1,3,4]oxadiazol-2-yl]-chroman-5-ylamine] was 10.2 nM; that for `CC(C)N1CCC(c2nnc(-c3cc(Cl)c(N)c4c3OCCC4)o2)CC1` [Example 12, 6-Chloro-8-[5-(1-isopropyl-piperidin-4-yl)-[1,3,4]oxadiazol-2-yl]-chroman-5-ylamine] was 15.3 nM.
Same read-out and setting: the value for `COCCCN1CCC(c2nnc(-c3cc(Cl)c(N)c4c3OCCC4)o2)CC1` [Example 13, 6-Chloro-8-{5-[1-(3-methoxy-propyl)-piperidin-4-yl]-[1,3,4]oxadiazol-2-yl}-chroman-5-ylamine] was 20.4 nM.
As for `Nc1c(Cl)cc(-c2nnc(C3CCN(CC4CCC4)CC3)o2)c2c1OCCO2` [Example 15, 6-Chloro-8-[5-(1-cyclobutylmethyl-piperidin-4-yl)-[1,3,4]oxadiazol-2-yl]-2,3-dihydro-benzo[1,4]dioxin-5-ylamine], the EC50 in data set [1] came to 6.2 nM. In data set [2] (1 mg/kg), the “Exploration time mean ± S.E.M, Familiar object” value was determined as 12.03 ± 1.73 s; the “Exploration time mean ± S.E.M, Novel object” value turned out to be 19.14 ± 3.02 s; the Inference result is “Active”.
Consider `Nc1c(Cl)cc(-c2nnc(C3CCN(C4CCCC4)CC3)o2)c2c1CCCO2` [Example 17, 6-Chloro-8-[5-(1-cyclopentyl-piperidin-4-yl)-[1,3,4]oxadiazol-2-yl]-chroman-5-ylamine tartarate salt], for which the EC50 in data set [1] was found to be 2.3 nM.
For `Nc1c(Cl)cc(-c2nnc(CCN3CCCCC3)o2)c2c1CCCO2` [Example 18, 6-Chloro-8-[5-(2-piperidin-1-yl-ethyl)-[1,3,4]oxadiazol-2-yl]-chroman-5-ylamine], the EC50 in data set [1] was 53 nM.
Same read-out and setting: in the case of `CC(C)N1CC2C(C1)C2c1nnc(-c2cc(Cl)c(N)c3c2OCCC3)o1` (centres unmarked) [Example 22, 6-Chloro-8-[5-(3-isopropyl-3-aza-bicyclo[3.1.0]hex-6-yl)-[1,3,4]oxadiazol-2-yl]-chroman-5-ylamine oxalate salt] it was 48 nM.
The same measure, in the same setting: the value for `Nc1c(Cl)cc(-c2nnc(C3C4CN(CC5CCC5)CC43)o2)c2c1CCCO2` (centres unmarked) [Example 23, 6-Chloro-8-[5-(3-cyclobutylmethyl-3-aza-bicyclo[3.1.0]hex-6-yl)-[1,3,4]oxadiazol-2-yl]-chroman-5-ylamine oxalate salt] was 20 nM.
With `Nc1c(Cl)cc(-c2nnc(C3C4CN(CC5CC5)CC43)o2)c2c1CCCO2` (centres unmarked) [Example 24, 6-Chloro-8-[5-(3-cyclopropylmethyl-3-aza-bicyclo[3.1.0]hex-6-yl)-[1,3,4]oxadiazol-2-yl]-chroman-5-ylamine], the EC50 in data set [1] turned out to be 25 nM.
`Nc1c(Cl)cc(-c2nnc(C3CCN(C4CC4)CC3)o2)c2c1CCO2` [Example 27, 5-Chloro-7-[5-(1-cyclopropyl-piperidin-4-yl)-[1,3,4]oxadiazol-2-yl]-2,3-dihydro-benzofuran-4-ylamine oxalate salt]: the EC50 in data set [1] was found to be 60 nM.
For the compound `Nc1c(Cl)cc(-c2nnc(C3CCN(C4CCC4)CC3)o2)c2c1CCO2` [Example 28, 5-Chloro-7-[5-(1-cyclobutyl-piperidin-4-yl)-[1,3,4]oxadiazol-2-yl]-2,3-dihydro-benzofuran-4-ylamine oxalate salt], in data set [1], the half-maximal effective concentration (EC50) worked out at 10 nM.
On the same count and under the same terms, the value for `Nc1c(Cl)cc(-c2nnc(C3CCN(C4CC4)CC3)o2)c2c1OCCO2` [Example 29, 6-Chloro-8-[5-(1-cyclopropyl-piperidin-4-yl)-[1,3,4]oxadiazol-2-yl]-2,3-dihydro-benzo[1,4]dioxin-5-ylamine oxalate salt] was 21.5 nM; that for `Nc1c(Cl)cc(-c2nnc(C3CCN(C4CCOCC4)CC3)o2)c2c1OCCO2` [Example 30, 6-Chloro-8-{5-[1-(tetrahydro-pyran-4-yl)-piperidin-4-yl]-[1,3,4]oxadiazol-2-yl}-2,3-dihydro-benzo[1,4]dioxin-5-ylamine oxalate salt] was 7.3 nM; that for `COCCCN1CCC(c2nnc(-c3cc(Cl)c(N)c4c3OCCO4)o2)CC1` [Example 31, 6-Chloro-8-{5-[1-(3-methoxy-propyl)-piperidin-4-yl]-[1,3,4]oxadiazol-2-yl}-2,3-dihydro-benzo[1,4]dioxin-5-ylamine oxalate salt] was 16.9 nM.
As to `Nc1c(Cl)cc(-c2nnc(C3CCN(CC4CCOCC4)CC3)o2)c2c1CCO2` [Example 33, 5-Chloro-7-{5-[1-(tetrahydro-pyran-4-ylmethyl)-piperidin-4-yl]-[1,3,4]oxadiazol-2-yl}-2,3-dihydro-benzofuran-4-ylamine oxalate], the EC50 in data set [1] came out at 21 nM.
Regarding `CCOC(=O)N1CCC(N2CCC(c3nnc(-c4cc(Cl)c(N)c5c4OCC5)o3)CC2)CC1` [Example 34, 4-[5-(4-Amino-5-chloro-2,3-dihydro-benzofuran-7-yl)-[1,3,4]oxadiazol-2-yl]-[1,4′]bipiperidinyl-1′-carboxylic acid ethyl ester oxalate], in data set [1], the EC50 came out at 5 nM.
As for `CC(C)n1nc(-c2nnc(C3CCN(CC4CC4)CC3)o2)c2ccccc21` [Example 39, 3-[5-(1-Cyclopropylmethyl-piperidin-4-yl)-[1,3,4]oxadiazol-2-yl]-1-isopropyl-1H-indazole], in data set [3] (5 mg/kg, intravenous (bolus)), the AUC(0-t) – broadly, the area under the concentration-time curve up to a stated or last time point – was determined as 1060 ± 163 ng·h/mL; the Tmax came to 4.8 min; the half-life (as a rule, how long it takes for the measured level to halve) was 99 ± 28.2 min. In data set [3] (10 mg/kg, oral (gavage)), the AUC(0-t) amounted to 394 ± 174 ng·h/mL, the Tmax amounted to 25.2 ± 7.2 min and the half-life was 82.8 ± 4.2 min.
Regarding `CC(C)n1nc(-c2nnc(CCN3CCCCC3)o2)c2ccccc21` [Example 49, 1-Isopropyl-3-[5-(2-piperidin-1-yl-ethyl)-[1,3,4]oxadiazol-2-yl]-1H-indazole oxalate], in data set [1], the EC50 is 181 nM.
